The record followed here is patent US9963467B2, “Boronic acid derivatives and therapeutic uses thereof” (Rempex Pharmaceuticals, Inc., priority 2014, dated 2018).

Format in all cases: in vitro ADME
Data set [1] can be described thus: Serum stability of prodrugs, human serum. The settings on record: human serum; prodrug; theoretical initial conc. 20 ug/mL. As to the method:
(§1) Prodrug strategy is one of the ways to achieve or increase oral bioavailability for therapeutic drugs. […] After a prodrug molecule is absorbed into systemic circulation, it should be hydrolyzed in the blood in order to release the active form. Hydrolysis of several prodrugs by rat and human serum were evaluated.
(§2) For all stability experiments the test compounds were treated with rat or human serum in Eppendorf tubes. Typically, 992 μl of serum was prewarmed at 37 degrees for 2 minutes and then 8 μl of a compound (at 5 mg/ml, 125×) was added to it to get a final concentration of […] and immediately mixed. Alternatively, serum stability might be tested at 1 mg/ml. […] After vortexing for 30 seconds, the tube was centrifuged in a microcentrifuge for 10 minutes at 15K rpm. Next, 100 μl of the supernatant was combined with 600 μl of water and injected on LC-MS using 0.1% formic acid in water for mobile phase A and 0.1% formic acid in methanol for mobile phase B on an ACE 5 C18 2.1×100 mm column with a 10 μL injection. The flow rate and gradient were adjusted as needed to give the desired resolution and run time. The pH of the mobile phase was adjusted if needed to improve the chromatography.
(§3) The time course of both the disappearance of a prodrug and the appearance of the active form of that prodrug is presented in Table 6 and Table 7. The active metabolites for all of the listed prodrugs are corresponding parent drugs

A short description of data set [2]: Serum stability of prodrugs, rat serum. The settings on record: theoretical initial conc. 20 ug/mL; for Measured Initial Conc. in Serum: 37 degrees; for Conc. at t = 1 hr / Conc. at t = 3 hr: prodrug. The protocol:
as §1, §2, §3

Data set [3] is described as follows: Serum stability of prodrugs, human serum. As to conditions: theoretical initial conc. 20 ug/mL; for Measured Initial Conc. in Serum: 37 degrees; for Conc. at t = 1 hr: prodrug.

The structures appear in SMILES notation.

Take `CCC(=O)OCOC(=O)c1c(F)ccc2c1OB(O)[C@@H](NC(=O)CSC)C2` [Compound 16, (R)-propionyloxymethyl 7-fluoro-2-hydroxy-3-(2-(methylthio)acetamido)-3,4-dihydro-2H-benzo[e][1,2]oxaborinine-8-carboxylate]: the figures for the “Conc. at t = 3 hr” value in data set [1] and in data set [2] were 270 ng/mL and 0 ng/mL, respectively. For the same compound, the results for the “Measured Initial Conc. in Serum” value in data set [2] and in data set [3] were 20.2 µg/mL and 20.7 µg/mL, respectively. Besides, the figures for the “Conc. at t = 1 hr” value in data set [2] and in data set [3] were 400 ng/mL and 2290 ng/mL, respectively.

Regarding `CSCC(=O)N[C@H]1Cc2ccc(F)c(C(=O)OCOC(=O)C(C)C)c2OB1O` [Compound 17, (R)-isobutyryloxymethyl 7-fluoro-2-hydroxy-3-(2-(methylthio)acetamido)-3,4-dihydro-2H-benzo[e][1,2]oxaborinine-8-carboxylate], the “Conc. at t = 3 hr” value in data set [1] was determined as 160 ng/mL. Further, in data set [2], the “Measured Initial Conc. in Serum” value turned out to be 9.22 µg/mL and the “Conc. at t = 1 hr” value came out at 1350 ng/mL. In data set [3], the “Measured Initial Conc. in Serum” value was 9.74 µg/mL and the “Conc. at t = 1 hr” value amounted to 1180 ng/mL.

With `CSCC(=O)N[C@H]1Cc2ccc(F)c(C(=O)OCOC(=O)C(C)(C)C)c2OB1O` [Compound 18, (R)-pivaloyloxymethyl 7-fluoro-2-hydroxy-3-(2-(methylthio)acetamido)-3,4-dihydro-2H-benzo[e][1,2]oxaborinine-8-carboxylate], the “Conc. at t = 3 hr” value in data set [1] was 6270 ng/mL; in data set [2], 3290 ng/mL. The results for the “Measured Initial Conc. in Serum” value in data set [2] and in data set [3] were 14.6 µg/mL and 16.3 µg/mL, respectively. The “Conc. at t = 1 hr” value in data set [2] came out at 9390 ng/mL; in data set [3], 11600 ng/mL.

As to `CCOC(=O)OCOC(=O)c1c(F)ccc2c1OB(O)[C@@H](NC(=O)CSC)C2` [Compound 19, (R)-(ethoxycarbonyloxy)methyl 7-fluoro-2-hydroxy-3-(2-(methylthio)acetamido)-3,4-dihydro-2H-benzo[e][1,2]oxaborinine-8-carboxylate], in data set [1], the “Conc. at t = 3 hr” value was found to be 1170 ng/mL. Besides, in data set [2], the “Measured Initial Conc. in Serum” value is 17.4 µg/mL, the “Conc. at t = 1 hr” value was 0 ng/mL and the “Conc. at t = 3 hr” value is 0 ng/mL. In data set [3], the “Measured Initial Conc. in Serum” value was found to be 20.3 µg/mL and the “Conc. at t = 1 hr” value turned out to be 6110 ng/mL.

Turning to `COc1ccc2c(c1C(=O)OCOC(=O)OC(C)C)OB(O)[C@@H](NC(=O)CSC)C2` [Compound 40, isopropoxycarbonyloxymethyl(3R)-2-hydroxy-7-methoxy-3-[(2-methylsulfanylacetyl)amino]-3,4-dihydro-1,2-benzoxaborinine-8-carboxylate], in data set [1], the “Conc. at t = 3 hr” value worked out at 19000 ng/mL. In data set [2], the “Measured Initial Conc. in Serum” value was 25.9 µg/mL, the “Conc. at t = 1 hr” value was 2710 ng/mL and the “Conc. at t = 3 hr” value stood at 740 ng/mL. For the same compound, in data set [3], the “Measured Initial Conc. in Serum” value stood at 24.8 µg/mL and the “Conc. at t = 1 hr” value was 23600 ng/mL.

For the compound `CCOC(=O)OCOC(=O)c1c(OC)ccc2c1OB(O)[C@@H](NC(=O)CSC)C2` [Compound 41, ethoxycarbonyloxymethyl(3R)-2-hydroxy-7-methoxy-3-[(2-methylsulfanylacetyl)amino]-3,4-dihydro-1,2-benzoxaborinine-8-carboxylate], the “Conc. at t = 3 hr” value was found to be 20900 ng/mL in data set [1] and 0 ng/mL in data set [2]. For the same compound, the “Measured Initial Conc. in Serum” value is 20.6 µg/mL in data set [2] and 24.4 µg/mL in data set [3]. For the same compound, the results for the “Conc. at t = 1 hr” value in data set [2] and in data set [3] were 400 ng/mL and 20800 ng/mL, respectively.

`COc1ccc2c(c1C(=O)OCOC(=O)C(C)C)OB(O)[C@@H](NC(=O)CSC)C2` [Compound 42, 2-methylpropanoyloxymethyl(3R)-2-hydroxy-7-methoxy-3-[(2-methylsulfanylacetyl)amino]-3,4-dihydro-1,2-benzoxaborinine-8-carboxylate]: the “Conc. at t = 3 hr” value in data set [1] came to 16500 ng/mL. Further, in data set [2], the “Measured Initial Conc. in Serum” value amounted to 24.2 µg/mL, the “Conc. at t = 1 hr” value amounted to 14100 ng/mL and the “Conc. at t = 3 hr” value worked out at 5580 ng/mL. In addition, in data set [3], the “Measured Initial Conc. in Serum” value worked out at 23.4 µg/mL and the “Conc. at t = 1 hr” value turned out to be 19500 ng/mL.

Turning to `CSCC(=O)N[C@H]1Cc2ccc(F)c(C(=O)OCOC(=O)c3ccccc3)c2OB1O` [Compound 43, benzoyloxymethyl(3R)-7-fluoro-2-hydroxy-3-[(2-methylsulfanylacetyl)amino]-3,4-dihydro-1,2-benzoxaborinine-8-carboxylate], the “Conc. at t = 3 hr” value in data set [1] was determined as 3160 ng/mL. In addition, in data set [2], the “Measured Initial Conc. in Serum” value turned out to be 18.0 µg/mL, the “Conc. at t = 1 hr” value turned out to be 11700 ng/mL and the “Conc. at t = 3 hr” value amounted to 4580 ng/mL. For the same compound, in data set [3], the “Measured Initial Conc. in Serum” value turned out to be 18.9 µg/mL and the “Conc. at t = 1 hr” value was 8940 ng/mL.

As to `CSCC(=O)N[C@H]1Cc2ccc(SC)c(C(=O)OCOC(=O)C(C)C)c2OB1O` [Compound 44, 2-methylpropanoyloxymethyl(3R)-2-hydroxy-7-methylsulfanyl-3-[(2-methylsulfanylacetyl)amino]-3,4-dihydro-1,2-benzoxaborinine-8-carboxylate], the “Conc. at t = 3 hr” value in data set [1] is 12500 ng/mL. Also, in data set [2], the “Measured Initial Conc. in Serum” value turned out to be 18.4 µg/mL, the “Conc. at t = 1 hr” value came out at 16000 ng/mL and the “Conc. at t = 3 hr” value worked out at 5210 ng/mL. Besides, in data set [3], the “Measured Initial Conc. in Serum” value came to 18.6 µg/mL and the “Conc. at t = 1 hr” value came out at 18100 ng/mL.

Take `CSCC(=O)N[C@H]1Cc2cc(F)c(F)c(C(=O)OCOC(=O)C(C)C)c2OB1O` [Compound 45, 2-methylpropanoyloxymethyl(3R)-6,7-difluoro-2-hydroxy-3-[(2-methylsulfanylacetyl)amino]-3,4-dihydro-1,2-benzoxaborinine-8-carboxylate]: the “Conc. at t = 3 hr” value in data set [1] was found to be 580 ng/mL. In data set [2], the “Measured Initial Conc. in Serum” value was determined as 18.6 µg/mL, the “Conc. at t = 1 hr” value turned out to be 8850 ng/mL and the “Conc. at t = 3 hr” value was determined as 420 ng/mL. For the same compound, in data set [3], the “Measured Initial Conc. in Serum” value was 18.4 µg/mL and the “Conc. at t = 1 hr” value amounted to 4830 ng/mL.

Consider `CSCC(=O)N[C@H]1Cc2cc(Cl)c(F)c(C(=O)OCOC(=O)C(C)C)c2OB1O` [Compound 46, 2-methylpropanoyloxymethyl(3R)-6-chloro-7-fluoro-2-hydroxy-3-[(2-methylsulfanylacetyl)amino]-3,4-dihydro-1,2-benzoxaborinine-8-carboxylate], for which the “Conc. at t = 3 hr” value in data set [1] stood at 1010 ng/mL. For the same compound, in data set [2], the “Measured Initial Conc. in Serum” value was 18.7 µg/mL, the “Conc. at t = 1 hr” value stood at 8290 ng/mL and the “Conc. at t = 3 hr” value is 410 ng/mL. For the same compound, in data set [3], the “Measured Initial Conc. in Serum” value is 19.1 µg/mL and the “Conc. at t = 1 hr” value was found to be 6220 ng/mL.
